In brackets after ≈: the same amount, converted by molar mass.
Assays:
Type in all cases: cell-based
[1] = test system: Bacillus subtilis A.T.C.C. 6633; test: standard disc plate microbiological assay; conditions: one microgram of the standard; Difco Antibiotic Medium No. 5
Source text: The assay is a standard disc plate assay using Difco Antibiotic Medium No. 5 and Bacillus subtilis A.T.C.C. 6633 as the test organism. The physical conditions of the test are substantially those described for neomycin (Grove and Randall), Assay Methods of Antibiotics published by Medical Encyclopedia Incorporated (1955). The assay is run against a standard preparation of Antibiotic G-418 having a defined potency of 1000 mcg/mg. […] The standard antibiotic sulfate salt assays about 750 mcg/mg. against the standard antibiotic base.

Escherichia coli 894 = test: In Vitro Antibacterial Activity (Table IV); conditions: E. coli 894, Tryptose Phosphate Broth pH 7.2 - 7.5, read-out: MIC (Minimum Inhibitory Concentration)
Source text: (§1) In Table IV and Table V are set forth the in vitro antibacterial spectrum of Antibiotic G-418 against a variety of gram-positive and gram-negative bacteria using standard art recognized methods.
(§2) *Minimum Inhibitory Concentration -- Medium: Tryptose Phosphate Broth pH

Escherichia coli Sc = test: In Vitro Antibacterial Activity (Table IV); conditions: E. coli Sc, Tryptose Phosphate Broth pH 7.2 - 7.5, read-out: MIC (Minimum Inhibitory Concentration)
Source text: as §1, §2

[2] = test system: Klebsiella pneumoniae DA20; test: In Vitro Antibacterial Activity (Table IV); conditions: K. pneumoniae DA20, Tryptose Phosphate Broth pH 7.2 - 7.5, read-out: MIC (Minimum Inhibitory Concentration)
Source text: as §1, §2

[3] = test system: Pseudomonas aeruginosa 37; test: In Vitro Antibacterial Activity (Table IV); conditions: P. aeruginosa 37, Tryptose Phosphate Broth pH 7.2 - 7.5, read-out: MIC (Minimum Inhibitory Concentration)
Source text: as §1, §2

[4] = test system: Pseudomonas aeruginosa VA6; test: In Vitro Antibacterial Activity (Table IV); conditions: P. aeruginosa VA6, Tryptose Phosphate Broth pH 7.2 - 7.5, read-out: MIC (Minimum Inhibitory Concentration)
Source text: as §1, §2

[5] = test system: Staphylococcus aureus 209P; test: In Vitro Antibacterial Activity (Table IV); conditions: S. aureus 209P, Tryptose Phosphate Broth pH 7.2 - 7.5, read-out: MIC (Minimum Inhibitory Concentration)
Source text: as §1, §2

[6] = test system: Staphylococcus aureus Gray; test: In Vitro Antibacterial Activity (Table IV); conditions: S. aureus Gray, Tryptose Phosphate Broth pH 7.2 - 7.5, read-out: MIC (Minimum Inhibitory Concentration)
Source text: as §1, §2

[7] = test system: Staphylococcus aureus Wood; test: In Vitro Antibacterial Activity (Table IV); conditions: S. aureus Wood, Tryptose Phosphate Broth pH 7.2 - 7.5, read-out: MIC (Minimum Inhibitory Concentration)
Source text: as §1, §2

[8] = test system: Staphylococcus aureus Ziegler; test: In Vitro Antibacterial Activity (Table IV); conditions: S. aureus Ziegler, Tryptose Phosphate Broth pH 7.2 - 7.5, read-out: MIC (Minimum Inhibitory Concentration)
Source text: as §1, §2

Streptococcus sp. C203 = test: In Vitro Antibacterial Activity (Table IV); conditions: Tryptose Phosphate Broth pH 7.2 - 7.5, read-out: MIC (Minimum Inhibitory Concentration)
Source text: as §1, §2

Streptococcus sp. C = test: In Vitro Antibacterial Activity (Table IV); conditions: Tryptose Phosphate Broth pH 7.2 - 7.5, read-out: MIC (Minimum Inhibitory Concentration)
Source text: as §1, §2

Bacillus subtilis 6633 = test: In Vitro Antibacterial Activity (Table V); conditions: B. subtilis 6633, Mueller-Hinton Broth pH 7.2 - 7.5
Source text: as §1
(§3) *Mueller -- Hinton Broth pH 7.2 - 7.5

Escherichia coli 777 = test: In Vitro Antibacterial Activity (Table V); conditions: E. coli 777, Mueller-Hinton Broth pH 7.2 - 7.5
Source text: as §1, §3

Escherichia coli 887 = test: In Vitro Antibacterial Activity (Table V); conditions: E. coli 887, Mueller-Hinton Broth pH 7.2 - 7.5
Source text: as §1, §3

Proteus mirabilis 12453 = test: In Vitro Antibacterial Activity (Table V); conditions: Mueller-Hinton Broth pH 7.2 - 7.5
Source text: as §1, §3

Proteus morganii 8019 = test: In Vitro Antibacterial Activity (Table V); conditions: Morganella morganii, Mueller-Hinton Broth pH 7.2 - 7.5
Source text: as §1, §3

Proteus rettgeri 9250 = test: In Vitro Antibacterial Activity (Table V); conditions: Providencia rettgeri, Mueller-Hinton Broth pH 7.2 - 7.5
Source text: as §1, §3

[9] = test system: Pseudomonas aeruginosa 1236; test: In Vitro Antibacterial Activity (Table V); conditions: P. aeruginosa 1236, Mueller-Hinton Broth pH 7.2 - 7.5
Source text: as §1, §3

[10] = test system: Pseudomonas aeruginosa 1262; test: In Vitro Antibacterial Activity (Table V); conditions: P. aeruginosa 1262, Mueller-Hinton Broth pH 7.2 - 7.5
Source text: as §1, §3

[11] = test system: Pseudomonas aeruginosa 20; test: In Vitro Antibacterial Activity (Table V); conditions: P. aeruginosa 20, Mueller-Hinton Broth pH 7.2 - 7.5
Source text: as §1, §3

[12] = test system: Pseudomonas aeruginosa 83; test: In Vitro Antibacterial Activity (Table V); conditions: P. aeruginosa 83, Mueller-Hinton Broth pH 7.2 - 7.5
Source text: as §1, §3

[13] = test system: Staphylococcus aureus 1257; test: In Vitro Antibacterial Activity (Table V); conditions: S. aureus 1257, Mueller-Hinton Broth pH 7.2 - 7.5
Source text: as §1, §3

Staphylococcus aureus 12 = test: In Vitro Antibacterial Activity (Table V); conditions: S. aureus 12, Mueller-Hinton Broth pH 7.2 - 7.5
Source text: as §1, §3

Staphylococcus aureus 23 = test: In Vitro Antibacterial Activity (Table V); conditions: S. aureus 23, Mueller-Hinton Broth pH 7.2 - 7.5
Source text: as §1, §3

Staphylococcus aureus 26 = test: In Vitro Antibacterial Activity (Table V); conditions: S. aureus 26, Mueller-Hinton Broth pH 7.2 - 7.5
Source text: as §1, §3

Staphylococcus aureus 32 = test: In Vitro Antibacterial Activity (Table V); conditions: S. aureus 32, Mueller-Hinton Broth pH 7.2 - 7.5
Source text: as §1, §3

Staphylococcus aureus 6 = test: In Vitro Antibacterial Activity (Table V); conditions: S. aureus 6, Mueller-Hinton Broth pH 7.2 - 7.5
Source text: as §1, §3

[14] = test system: Staphylococcus aureus Sm 1; test: In Vitro Antibacterial Activity (Table V); conditions: SM1, S. aureus Sm 1, Mueller-Hinton Broth pH 7.2 - 7.5
Source text: as §1, §3

Q: How did the zone of inhibition [1] turn out when CN[C@@H]1[C@@H](O)[C@@H](O[C@@H]2[C@@H](O)[C@H](O[C@H]3O[C@H]([C@@H](C)O)[C@@H](O)[C@H](O)[C@H]3N)[C@@H](N)C[C@H]2N)OC[C@]1(C)O [Antibiotic G-418] was run?
A: 16.5 ± 1.5 mm

Q: What about the MIC (Escherichia coli 894) of the same compound?
A: 7.5 µg/mL (≈ 15.1 µM)

Q: What about the MIC (Escherichia coli Sc) of the same compound?
A: 3 µg/mL (≈ 6.04 µM)

Q: What about the MIC [2] of the same compound?
A: 3 µg/mL (≈ 6.04 µM)

Q: What about the MIC [3] of the same compound?
A: 17.5 µg/mL (≈ 35.2 µM)

Q: What about the MIC [4] of the same compound?
A: 3 µg/mL (≈ 6.04 µM)

Q: And the MIC [5]?
A: 0.8 µg/mL (≈ 1.61 µM)

Q: And the MIC [6]?
A: 7.5 µg/mL (≈ 15.1 µM)

Q: And the MIC [7]?
A: 0.8 µg/mL (≈ 1.61 µM)

Q: What about the MIC [8] of the same compound?
A: 0.8 µg/mL (≈ 1.61 µM)

Q: What about the MIC (Streptococcus sp. C203) of the same compound?
A: 17.5 µg/mL (≈ 35.2 µM)

Q: What about the MIC (Streptococcus sp. C) of the same compound?
A: > 25 µg/mL

Q: And the MIC (Bacillus subtilis 6633)?
A: 3 µg/mL (≈ 6.04 µM)

Q: And the MIC (Escherichia coli 777)?
A: 3 µg/mL (≈ 6.04 µM)

Q: And the MIC (Escherichia coli 887)?
A: 3 µg/mL (≈ 6.04 µM)

Q: And the MIC (Proteus mirabilis 12453)?
A: 7.5 µg/mL (≈ 15.1 µM)

Q: And the MIC (Proteus morganii 8019)?
A: 0.8 µg/mL (≈ 1.61 µM)

Q: And the MIC (Proteus rettgeri 9250)?
A: 0.3 µg/mL (≈ 0.604 µM)

Q: And the MIC [9]?
A: 17.5 µg/mL (≈ 35.2 µM)

Q: And the MIC [10]?
A: 17.5 µg/mL (≈ 35.2 µM)

Q: What about the MIC [11] of the same compound?
A: 3 µg/mL (≈ 6.04 µM)

Q: And the MIC [12]?
A: 7.5 µg/mL (≈ 15.1 µM)

Q: And the MIC [13]?
A: 0.3 µg/mL (≈ 0.604 µM)

Q: And the MIC (Staphylococcus aureus 12)?
A: 3 µg/mL (≈ 6.04 µM)

Q: And the MIC (Staphylococcus aureus 23)?
A: 0.3 µg/mL (≈ 0.604 µM)

Q: And the MIC (Staphylococcus aureus 26)?
A: 3 µg/mL (≈ 6.04 µM)

Q: What about the MIC (Staphylococcus aureus 32) of the same compound?
A: 7.5 µg/mL (≈ 15.1 µM)

Q: And the MIC (Staphylococcus aureus 6)?
A: 0.3 µg/mL (≈ 0.604 µM)

Q: And the MIC [14]?
A: 0.3 µg/mL (≈ 0.604 µM)

Reference: patent publication US3997403A, “Antibiotic G-418 and the production thereof” (Schering Corporation, priority 1975, dated 1976)
